# Test results taken from article PMC2837410, “Structural Basis of Cell Wall Cleavage by a Staphylococcal Autolysin” (PLoS Pathogens, 2010).
# Substitutions are numbered along the chain they refer to.
# Columns and labels:
# wt amidase = settings: chelating agents likely remove the zinc ion; cited from earlier work
# Excerpt: In order to determine whether amino acids in the vicinity of the zinc ion are required for enzymatic activity, residues H60, H177 and D179 were separately mutated to alanine. All three mutant proteins were expressed and purified to homogeneity. None of them has lytic activity in zymogram gels with heat-inactivated S. aureus cells, whereas the wild type (wt) protein is able to lyse cell walls efficiently (Figure 4A). Similar results were obtained with lysis assays using purified S. aureus PGN (Figure 4B). Our results therefore provide evidence for a critical role of the zinc ion and its surroun ...
# AmiE = molecular target: T1, AmiE (Staphylococcus epidermidis, UniProt O33635); assay: Digestion assay with modified AmiE substrates (Mca substrate derivatives); type: biochemical; settings: 70 µM substrate, 7.2 µM AmiE, 37°C, 50 mM sodium phosphate buffer pH 7.2, 6 h; stopped with 1% TFA; RP-HPLC C-18, UV 214 nm
# T1 construct: A DNA fragment coding for amino acids 303 to 516 of the atlE gene product; GST (N, cleaved yes); made in house; host or cells: Escherichia coli BL21 (DE3)
# T1 sequence (O33635 303-516): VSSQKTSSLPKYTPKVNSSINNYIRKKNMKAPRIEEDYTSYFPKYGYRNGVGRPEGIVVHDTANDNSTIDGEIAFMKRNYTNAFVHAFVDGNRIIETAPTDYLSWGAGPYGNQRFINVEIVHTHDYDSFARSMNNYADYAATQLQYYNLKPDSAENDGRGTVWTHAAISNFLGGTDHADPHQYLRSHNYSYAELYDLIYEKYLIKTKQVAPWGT
# Description: The five substrates, each at a concentration of 70 µM, were processed by 7.2 µM AmiE at 37°C in digestion buffer (50 mM sodium phosphate buffer, pH 7.2). After 1, 3 and 6 h, the reaction was stopped by adding trifluoroacetic acid to a final concentration of 1%. Decrease of the initial substrate and formation of the Mca product were analyzed by analytical RP-HPLC using a binary HPLC system (Shimadzu, Tokyo, Japan) with a UV detector, a Nucleosil C-18 column (5 µm particle size, 150×2 mm) from Dr Maisch GmbH (Tuebingen, Germany) and a two solvent system: (A) 0.055% (v/v) TFA in water and (B) 0.05% TFA in 80% acetonitrile in water. The substrate was well separated from the generated cleavage product Mca, and was quantified at 214 nm.
# AmiE wt = molecular target: T2, AmiE wt (Staphylococcus epidermidis, UniProt O33635); assay: MTP digestion assay (cleavage of PGN-derived ligands), wt enzyme; type: biochemical; settings: 10 µg protein + 0.1 mg ligand in 10 µl 50 mM Tris/HCl pH 8.0, 150 mM NaCl; 72 h at 37°C; products analysed by HPLC and ESI-MS
# T2 construct: A DNA fragment coding for amino acids 303 to 516 of the atlE gene product; GST (N, cleaved yes); made in house; host or cells: Escherichia coli BL21 (DE3)
# T2 sequence (O33635 303-516): T1 sequence (O33635 303-516)
# Description: (§1) To determine the minimal PGN sequence that can still be cleaved by AmiE, we performed cleavage assays with three PGN-derived compounds: MTP, N-acetylmuramyl-L-alanyl-D-iso-glutamine (MDP), and N-acetyl-D-glucosaminyl-(1,4)-N-acetylmuramyl-L-alanyl-D-iso-glutamine (GMDP). MDP and GDMP were purchased from Sigma and Calbiochem, respectively, whereas MTP was synthesized as described. All ligands were incubated with the wt protein for 72 h at 37°C, followed by analysis of products with HPLC and ESI mass spectrometry. […] The m/z profile of the H177A mutant is dominated by peaks at m/z 621 and 649 (Figure 5, right). The latter peak represents the MTP educt plus an unknown additional mass, which probably originates from the synthesis. Both peaks are replaced by peaks at m/z 346 and 374 in the profile for the wt protein (Figure 5, left). The first peak corresponds to the expected mass of the cleaved peptide stem while the second one is the digestion product of the compound with the higher mass. We conclude that cleavage by AmiE requires the presence of a third amino acid in the peptide stem. As the lysine is quite distant from the active site, it is most likely not required for the catalytic reaction itself but likely serves to anchor the ligand in the binding site. Similar cleavage results have previously been obtained for the catalytically active PGRP-L protein, which also requires MTP for cleavage.
# For each assay, 10 µg of wt or mutant protein and 0.1 mg of the appropriate ligand were incubated in 10 µl gel filtration buffer (50 mM Tris/HCl pH 8.0, 150 mM NaCl). The reaction was stopped after 72 h by adding 100 µl acetonitrile with 0,05% (v/v) formic acid. The sample was then frozen at -20°C until used for ESI-MS.
# AmiE H177A = molecular target: T3, AmiE H177A (Staphylococcus epidermidis, UniProt O33635, H479A); assay: MTP digestion assay, inactive mutant (negative control); type: biochemical; settings: 10 µg protein + 0.1 mg ligand in 10 µl 50 mM Tris/HCl pH 8.0, 150 mM NaCl; 72 h; ESI-MS
# T3 construct: A DNA fragment coding for amino acids 303 to 516 of the atlE gene product; GST (N, cleaved yes); made in house; host or cells: Escherichia coli
# T3 sequence (O33635 303-516 H479A): T1 sequence (O33635 303-516) with H177A
# Description: as §1, with “Similar cleavage results have previously been obtained for the catalytically active PGRP-L protein, which also requires MTP for cleavage.” left out
compound,measurement,setting,value
O=C(O)CN(CCN(CC(=O)O)CC(=O)O)CC(=O)O [EDTA],effect of chelating agent on activity of the wt amidase,wt amidase,loss of activity
c1cnc2c(c1)ccc1cccnc12 [phenanthroline],effect of chelating agent on activity of the wt amidase,wt amidase,loss of activity
Mca-Ala-D-iGln-Ala-D-Ala-Arg-OH [Ala-substrate],amount of substrate cleaved after 6 h,AmiE,Approximately 10%
Mca-Ala-D-iGln-Lys-D-Ala-Arg-OH [Lys-substrate],amount of substrate cleaved after 6 h,AmiE,almost half
"N-acetyl-D-glucosaminyl-(1,4)-N-acetylmuramyl-L-alanyl-D-iso-glutamine [GMDP]",cleavage of ligand by the wt enzyme,AmiE wt,neither MDP nor GMDP are cleaved
N-acetylmuramyl-L-alanyl-D-iso-glutamine [MDP],cleavage of ligand by the wt enzyme,AmiE wt,neither MDP nor GMDP are cleaved
N-acetylmuramyl-L-alanyl-D-iso-glutamyl-L-lysine [MTP],cleavage of ligand by the wt enzyme,AmiE wt,cleaved into two fragments
same,cleavage of ligand by the H177A mutant,AmiE H177A,does not cleave
